Test results reported in ChEMBL document CHEMBL1201862, “PubChem BioAssay data set” (2004).
Calls of active or inactive are those of the source.

Assays:
[1] = test system: HEK293; assay: cells; conditions: Homo sapiens
[2] = target: T1, Nucleotide-binding oligomerization domain-containing protein 1 (Homo sapiens, UniProt Q9Y239); assay: NOD1 signaling inhibitors, SAR follow-up, revised (AID 2333); format: functional
T1 sequence (Q9Y239 whole entry): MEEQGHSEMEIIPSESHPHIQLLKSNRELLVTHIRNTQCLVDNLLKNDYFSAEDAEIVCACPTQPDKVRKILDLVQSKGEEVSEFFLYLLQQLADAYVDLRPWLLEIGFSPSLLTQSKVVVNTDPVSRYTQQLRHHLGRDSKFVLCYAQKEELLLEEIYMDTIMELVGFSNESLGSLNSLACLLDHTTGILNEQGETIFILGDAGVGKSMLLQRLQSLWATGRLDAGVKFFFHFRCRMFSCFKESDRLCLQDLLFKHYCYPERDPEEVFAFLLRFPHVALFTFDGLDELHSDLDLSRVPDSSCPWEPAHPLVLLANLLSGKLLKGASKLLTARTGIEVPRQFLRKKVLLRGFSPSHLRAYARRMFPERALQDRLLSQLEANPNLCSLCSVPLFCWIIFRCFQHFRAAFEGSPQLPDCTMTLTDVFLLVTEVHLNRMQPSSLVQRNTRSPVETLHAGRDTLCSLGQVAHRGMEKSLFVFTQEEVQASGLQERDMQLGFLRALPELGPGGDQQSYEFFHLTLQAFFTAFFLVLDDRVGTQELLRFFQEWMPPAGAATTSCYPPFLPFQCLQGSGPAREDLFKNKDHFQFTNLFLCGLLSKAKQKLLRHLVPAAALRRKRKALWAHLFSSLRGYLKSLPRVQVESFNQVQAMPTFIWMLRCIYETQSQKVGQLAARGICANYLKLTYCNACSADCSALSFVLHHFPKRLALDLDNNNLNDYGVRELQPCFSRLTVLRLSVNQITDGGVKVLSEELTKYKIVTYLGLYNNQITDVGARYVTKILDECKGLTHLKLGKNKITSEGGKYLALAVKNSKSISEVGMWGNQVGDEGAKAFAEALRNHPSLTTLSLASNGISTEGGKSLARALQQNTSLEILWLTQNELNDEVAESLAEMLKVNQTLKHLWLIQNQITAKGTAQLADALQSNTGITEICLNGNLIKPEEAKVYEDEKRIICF

[3] = target: T2, Tumor necrosis factor (Homo sapiens, UniProt P01375); assay: TNFa-triggered NF-kB activation inhibitors, SAR follow-up, cell-based, revised (AID 2337); format: functional
[4] = target: Cytochrome P450 3A4 (Homo sapiens, UniProt P08684);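 further: CYP3A4 tested as one member of a cytochrome P450 panel screen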
[5] = cytotoxicity in HEK-293T cells, dose response, cytotoxicity control for TCR NF-kB inhibitor project, luminescence, T-cell screen hits (AID 489026); format: functional, cell-based;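 further: cells exposed to compound about 14 hours before the viability readout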
[6] = target: Sphingosine 1-phosphate receptor 2 (Homo sapiens, UniProt O95136); assay: Dose Response Cell Based Assay for Antagonists of the S1P2 Receptor. [Related pubchem assays: 856, 736 ]; format: functional
[7] = target: Lysine-specific demethylase 4A (Homo sapiens, UniProt O75164); assay: JMJD2A histone demethylase inhibitors, dose response, selectivity assay for GASC-1 inhibitor project, biochemical, DELFIA europium, cherry-picked samples (AID 488840)
[8] = test system: Streptococcus; assay: Group A Streptococcus viability loss, dose response, counter-screen for streptokinase expression inhibitor project, luminescence, BacTiterGlo (AID 1915); format: functional, organism-based;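 further: potency for reduction of bacterial viability or growth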
[9] = target: T3, Tyrosine-protein phosphatase non-receptor type 22 (Homo sapiens, UniProt Q9Y2R2); assay: SAR LYP1 Fluorescent Assay using OMFP substrate for In Vitro dose response studies - Set 3. [Related pubchem assays (depositor defined):AID1779, AID1784, AID2140, AID2686]; format: functional
T3 sequence (Q9Y2R2 whole entry): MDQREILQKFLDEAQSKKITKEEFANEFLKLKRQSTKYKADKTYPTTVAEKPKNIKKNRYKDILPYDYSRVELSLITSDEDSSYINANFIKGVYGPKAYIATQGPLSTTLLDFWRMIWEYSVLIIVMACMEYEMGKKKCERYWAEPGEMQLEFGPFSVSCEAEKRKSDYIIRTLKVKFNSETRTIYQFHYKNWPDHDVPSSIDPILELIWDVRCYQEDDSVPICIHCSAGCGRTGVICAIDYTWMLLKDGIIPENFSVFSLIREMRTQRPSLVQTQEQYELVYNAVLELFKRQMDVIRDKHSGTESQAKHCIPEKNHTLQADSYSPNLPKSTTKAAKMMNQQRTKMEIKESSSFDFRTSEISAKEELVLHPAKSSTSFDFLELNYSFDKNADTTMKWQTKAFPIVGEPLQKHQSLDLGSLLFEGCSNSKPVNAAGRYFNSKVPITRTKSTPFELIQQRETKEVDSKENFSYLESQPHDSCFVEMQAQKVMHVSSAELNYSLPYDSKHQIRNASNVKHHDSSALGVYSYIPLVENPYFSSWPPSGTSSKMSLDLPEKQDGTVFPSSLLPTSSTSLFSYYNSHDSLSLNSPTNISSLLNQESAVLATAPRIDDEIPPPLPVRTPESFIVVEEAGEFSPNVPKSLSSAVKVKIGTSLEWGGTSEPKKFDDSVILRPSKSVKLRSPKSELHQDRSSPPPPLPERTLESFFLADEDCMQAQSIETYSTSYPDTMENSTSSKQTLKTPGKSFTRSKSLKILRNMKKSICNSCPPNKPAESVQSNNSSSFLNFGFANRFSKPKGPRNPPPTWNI

[10] = target: Tyrosine-protein phosphatase non-receptor type 12 (Homo sapiens, UniProt Q05209); assay: SAR Selectivity Analysis of small molecule inhibitors of PEST using pCAP in a fluorescence assay. [Related pubchem assays (depositor defined):AID1779, AID1784, AID2135]; format: functional
[11] = Luminescence Cell-Based Dose Response HTS to Identify Inhibitors of 5'UTR Stem-Loop Driven Prion Protein mRNA Translation in H4 Neuroglioblastoma Cells. [Related pubchem assays: 1827 (Project Summary), 1813 (Primary HTS)]; format: functional
[12] = target: G-protein coupled receptor 55 (Homo sapiens, UniProt Q9Y2T6); assay: GPR55 antagonists, SAR follow-up, counter-screen for GPR35 antagonist project, imaging, image-based (AID 2397); format: functional
[13] = target: T4, G-protein coupled receptor 35 (Homo sapiens, UniProt Q9HC97); assay: GPR35 antagonists blocking zaprinast-driven arrestin recruitment, primary screen, imaging, U2OS, beta-arrestin-GFP, zaprinast agonist (AID 2058); format: functional;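 further: antagonist potency meaning inhibition of agonist-induced arrestin redistribution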
[14] = inhibitors of SNCA 5'UTR-driven reporter translation, confirmation, H4 neuroglioma cells, luminescence (AID 1988); format: functional, cell-based
[15] = target: T4, G-protein coupled receptor 35; assay: SAR Analysis for the identification of Selective Antagonists of ERK1/2 Activity in GPR35-Overexpressing U2OS Cells. [Related pubchem assays: 2079, 2058 ]; format: functional, cell-based
[16] = inhibitors of firefly luciferase expression or activity, dose response, H4 neuroglioma cells, luminescence (AID 1990); format: functional, cell-based
[17] = test system: Streptococcus sp. 'group A'; assay: growth inhibition of control SK(-) GAS strain, dose response, counter-screen for streptokinase expression inhibitor project, luminescence, kanamycin, BacTiterGlo, confirmation (AID 1900); format: functional, organism-based
[18] = target: T5, Streptokinase A (Streptococcus pyogenes serotype M1, UniProt P10520); assay: S. pyogenes streptokinase expression inhibitors, potency, dose response, plasminogen activation absorbance, OD405 (AID 1914); format: functional, Streptococcus pyogenes M1 GAS;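 further: secreted streptokinase activity via plasminogen activation per viability signal from cell pellet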
T5 sequence (P10520 whole entry): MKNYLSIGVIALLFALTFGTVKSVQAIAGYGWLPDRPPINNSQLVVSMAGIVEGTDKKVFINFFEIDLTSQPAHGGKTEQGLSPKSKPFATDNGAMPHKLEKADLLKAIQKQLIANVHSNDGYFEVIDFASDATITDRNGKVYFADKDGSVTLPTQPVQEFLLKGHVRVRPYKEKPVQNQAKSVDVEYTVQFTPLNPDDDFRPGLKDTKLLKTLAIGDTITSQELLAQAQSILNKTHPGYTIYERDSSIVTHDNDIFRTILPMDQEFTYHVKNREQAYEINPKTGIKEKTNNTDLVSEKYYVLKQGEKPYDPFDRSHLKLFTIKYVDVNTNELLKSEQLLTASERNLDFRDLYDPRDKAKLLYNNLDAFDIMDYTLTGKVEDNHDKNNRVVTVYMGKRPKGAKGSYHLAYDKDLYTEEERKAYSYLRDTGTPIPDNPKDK

[19] = target: T6, Tyrosine-protein phosphatase non-receptor type 7 (Homo sapiens, UniProt P35236); assay: HePTP (PTPN7) phosphatase inhibitor potency, SAR follow-up, biochemical, set 2 (AID 449736); format: functional
T6 sequence (P35236 whole entry): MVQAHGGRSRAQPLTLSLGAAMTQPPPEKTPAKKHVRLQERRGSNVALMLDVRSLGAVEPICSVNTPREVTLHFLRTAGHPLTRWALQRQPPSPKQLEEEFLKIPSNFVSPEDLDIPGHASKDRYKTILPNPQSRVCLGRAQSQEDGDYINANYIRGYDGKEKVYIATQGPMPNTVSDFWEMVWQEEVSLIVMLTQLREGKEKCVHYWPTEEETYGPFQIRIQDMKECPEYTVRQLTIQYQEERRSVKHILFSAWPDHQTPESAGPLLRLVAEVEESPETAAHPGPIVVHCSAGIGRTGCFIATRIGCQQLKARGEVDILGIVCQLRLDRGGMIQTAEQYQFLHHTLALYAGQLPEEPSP

[20] = target: Nucleotide-binding oligomerization domain-containing protein 2 (Homo sapiens, UniProt Q9HC29); assay: NOD2 signaling inhibitors, analog potency, SAR follow-up, cell-based, set 3 (AID 2799); format: functional
[21] = target: T1, Nucleotide-binding oligomerization domain-containing protein 1; assay: SAR analysis of compounds that inhibit NOD1 - Set 3. [Related pubchem assays (depositor defined):AID1566, AID1575, AID1578, AID1849, AID1852, AID2333, AID2335, AID2466]; format: functional
[22] = test system: HEK293; assay: SAR analysis of compounds that are cytotoxic to HEK293 - Set 3. [Related pubchem assays (depositor defined):AID1575, AID1578, AID1848, AID1849, AID2001, AID2333, AID2334, AID2335, AID2337, AID2469]; format: functional, cell-based; conditions: Homo sapiens
[23] = target: T2, Tumor necrosis factor; assay: TNFa-triggered NF-kB activation inhibitors, SAR follow-up, cell-based, set 3 (AID 2801); format: functional
[24] = target: Cytochrome P450 2D6 (Homo sapiens, UniProt P10635);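 further: CYP2D6 member of a cytochrome P450 panel assay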
[25] = target: Cytochrome P450 2C19 (Homo sapiens, UniProt P33261); assay: Cytochrome panel assay with activity outcomes. Panel member name: p450-cyp2c19 Compounds with AC50 equal or less than 10 uM are considered active; format: functional
[26] = inhibitors of intracellular T. cruzi replication, confirmation, NIH3T3 host cells, beta-gal luminescence (AID 2044); format: functional, cell-based;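 further: intracellular parasites grown in NIH/3T3 mouse fibroblasts as host cells; luminescent beta-galactosidase reporter signal from transgenic T. cruzi replicating inside host cells; inhibitors lower the luminescence signal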
[27] = ADAM10 inhibitors, peptide cleavage, dose response, biochemical, QFRET (AID 743254);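 further: ADAM10 enzyme with the DM2 quenched FRET peptide as substrate; EDANS fluorescence gain as the protease cuts the substrate; inhibitor potency against ADAM10 proteolytic activity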
[28] = target: Disintegrin and metalloproteinase domain-containing protein 17 (Homo sapiens, UniProt P78536); assay: ADAM17 protease inhibitors, dose response, counter-screen for ADAM10 exosite inhibitor project, biochemical, quenched FRET substrate (AID 743253)
[29] = cytotoxicity toward NIH3T3 fibroblasts, dose response, counter-screen, cell-based, ATP luminescence, mouse fibroblasts (AID 2010); format: functional;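 further: cells exposed to compound for about 90 hours before reading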
[30] = target: CAAX prenyl protease 2 (Homo sapiens, UniProt Q9Y256); assay: human Rce1 protease inhibitors, dose response, biochemical, yeast membranes, quenched-peptide fluorescence, cherry-pick (AID 588849)
[31] = target: CAAX prenyl protease 1 (Saccharomyces cerevisiae S288c, UniProt P47154); assay: Ste24 protease inhibitors, dose response, biochemical, S. cerevisiae, plate reader, cherry-pick (AID 488815)
[32] = cytotoxicity in HMLE control line with eGFP shRNA, dose response, counter-screen for HMLE_sh_ECad selective toxicity project, cell-based, HMLE_sh_eGFP, luminescence (AID 463074); format: functional, Homo sapiens;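 further: HMLE human mammary epithelial cells expressing control shRNA against eGFP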
[33] = Luminescence Cell-Based Dose Retest to Confirm Inhibitors of Cancer Stem Cells. [Related pubchem assays (depositor defined):AID2717, AID2721]; format: functional; conditions: Homo sapiens

T2 sequence (P01375 whole entry): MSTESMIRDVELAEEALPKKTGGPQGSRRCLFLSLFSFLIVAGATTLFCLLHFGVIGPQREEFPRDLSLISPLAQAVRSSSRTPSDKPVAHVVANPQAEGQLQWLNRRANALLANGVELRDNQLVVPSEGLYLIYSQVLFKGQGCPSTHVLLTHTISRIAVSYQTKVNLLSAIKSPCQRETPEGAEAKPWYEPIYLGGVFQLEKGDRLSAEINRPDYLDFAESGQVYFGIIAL
T4 sequence (Q9HC97 whole entry): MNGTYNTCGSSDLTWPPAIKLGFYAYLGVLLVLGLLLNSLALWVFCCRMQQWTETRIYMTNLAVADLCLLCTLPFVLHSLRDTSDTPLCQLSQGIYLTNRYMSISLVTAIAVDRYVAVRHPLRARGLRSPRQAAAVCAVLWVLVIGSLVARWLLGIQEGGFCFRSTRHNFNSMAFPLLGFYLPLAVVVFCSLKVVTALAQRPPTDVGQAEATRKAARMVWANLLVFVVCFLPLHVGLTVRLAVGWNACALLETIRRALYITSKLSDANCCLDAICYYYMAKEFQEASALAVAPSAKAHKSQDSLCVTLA
Chain of Sphingosine 1-phosphate receptor 2 (O95136 whole entry): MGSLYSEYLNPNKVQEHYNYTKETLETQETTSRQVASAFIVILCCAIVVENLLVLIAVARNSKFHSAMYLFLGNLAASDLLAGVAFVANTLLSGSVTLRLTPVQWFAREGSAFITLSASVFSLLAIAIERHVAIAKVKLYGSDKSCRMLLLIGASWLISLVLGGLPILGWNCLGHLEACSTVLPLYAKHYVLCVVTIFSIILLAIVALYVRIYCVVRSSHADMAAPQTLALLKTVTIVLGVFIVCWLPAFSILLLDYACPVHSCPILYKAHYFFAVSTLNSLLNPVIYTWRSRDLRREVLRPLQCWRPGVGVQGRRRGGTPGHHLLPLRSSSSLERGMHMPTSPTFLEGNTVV
Chain of Cytochrome P450 2D6 (P10635 whole entry): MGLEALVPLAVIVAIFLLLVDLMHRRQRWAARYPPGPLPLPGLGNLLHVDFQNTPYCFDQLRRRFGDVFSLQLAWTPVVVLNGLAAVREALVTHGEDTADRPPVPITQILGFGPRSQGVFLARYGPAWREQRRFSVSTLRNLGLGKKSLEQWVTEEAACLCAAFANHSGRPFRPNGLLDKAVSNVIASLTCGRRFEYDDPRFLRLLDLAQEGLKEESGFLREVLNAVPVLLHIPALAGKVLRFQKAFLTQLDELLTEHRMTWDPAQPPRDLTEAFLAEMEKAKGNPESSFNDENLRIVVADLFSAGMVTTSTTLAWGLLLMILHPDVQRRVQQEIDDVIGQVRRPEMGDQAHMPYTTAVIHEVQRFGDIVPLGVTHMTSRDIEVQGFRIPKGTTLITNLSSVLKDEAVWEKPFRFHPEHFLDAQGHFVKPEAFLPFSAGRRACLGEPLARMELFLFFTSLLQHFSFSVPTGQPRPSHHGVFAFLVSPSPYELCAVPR
Chain of Tyrosine-protein phosphatase non-receptor type 12 (Q05209 whole entry): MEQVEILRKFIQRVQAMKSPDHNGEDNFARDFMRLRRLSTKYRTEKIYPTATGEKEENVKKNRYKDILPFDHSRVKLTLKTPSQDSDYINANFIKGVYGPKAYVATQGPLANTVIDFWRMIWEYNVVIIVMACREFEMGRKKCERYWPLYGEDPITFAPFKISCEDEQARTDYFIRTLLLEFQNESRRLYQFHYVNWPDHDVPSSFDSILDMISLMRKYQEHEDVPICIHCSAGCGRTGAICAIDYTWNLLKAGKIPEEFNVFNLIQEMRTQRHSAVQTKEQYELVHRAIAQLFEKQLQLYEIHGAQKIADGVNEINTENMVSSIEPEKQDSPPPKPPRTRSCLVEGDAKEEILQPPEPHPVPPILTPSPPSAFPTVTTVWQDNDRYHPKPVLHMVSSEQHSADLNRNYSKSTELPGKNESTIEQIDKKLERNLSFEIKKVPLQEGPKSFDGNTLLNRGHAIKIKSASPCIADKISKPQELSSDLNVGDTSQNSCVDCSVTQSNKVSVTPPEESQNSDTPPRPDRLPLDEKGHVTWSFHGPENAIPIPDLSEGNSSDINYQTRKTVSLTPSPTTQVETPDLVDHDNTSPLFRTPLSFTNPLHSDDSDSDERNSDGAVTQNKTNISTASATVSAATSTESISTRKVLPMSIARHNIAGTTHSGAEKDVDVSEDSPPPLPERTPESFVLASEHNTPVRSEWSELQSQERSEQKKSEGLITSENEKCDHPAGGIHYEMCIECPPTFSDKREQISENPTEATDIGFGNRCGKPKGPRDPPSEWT
Chain of CAAX prenyl protease 1 (P47154 whole entry): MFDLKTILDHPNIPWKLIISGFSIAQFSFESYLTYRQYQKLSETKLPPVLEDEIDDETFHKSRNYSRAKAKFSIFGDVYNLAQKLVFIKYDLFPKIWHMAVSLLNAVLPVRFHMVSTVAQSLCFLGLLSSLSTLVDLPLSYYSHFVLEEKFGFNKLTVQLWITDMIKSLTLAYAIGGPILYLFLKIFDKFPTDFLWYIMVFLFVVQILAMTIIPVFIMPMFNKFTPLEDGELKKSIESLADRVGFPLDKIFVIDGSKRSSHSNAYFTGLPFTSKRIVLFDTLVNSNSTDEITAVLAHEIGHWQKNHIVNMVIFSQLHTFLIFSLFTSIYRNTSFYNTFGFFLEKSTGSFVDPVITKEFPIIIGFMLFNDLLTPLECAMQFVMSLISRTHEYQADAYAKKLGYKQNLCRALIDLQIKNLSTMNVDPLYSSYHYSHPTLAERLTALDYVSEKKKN
Chain of Cytochrome P450 3A4 (P08684 whole entry): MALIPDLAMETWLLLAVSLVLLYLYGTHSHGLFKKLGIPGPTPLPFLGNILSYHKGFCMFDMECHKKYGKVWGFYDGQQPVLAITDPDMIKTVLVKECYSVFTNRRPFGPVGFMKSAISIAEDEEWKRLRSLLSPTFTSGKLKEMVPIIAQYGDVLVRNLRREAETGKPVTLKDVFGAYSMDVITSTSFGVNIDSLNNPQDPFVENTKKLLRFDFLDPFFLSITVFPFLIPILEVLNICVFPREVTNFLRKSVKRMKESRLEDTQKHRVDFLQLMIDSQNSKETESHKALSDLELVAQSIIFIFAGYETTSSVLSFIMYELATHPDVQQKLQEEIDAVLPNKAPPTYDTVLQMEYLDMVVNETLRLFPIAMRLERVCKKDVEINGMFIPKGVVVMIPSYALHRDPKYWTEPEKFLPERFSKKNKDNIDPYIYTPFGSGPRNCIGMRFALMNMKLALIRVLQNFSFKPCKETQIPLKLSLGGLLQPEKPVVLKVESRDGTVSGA
Chain of Disintegrin and metalloproteinase domain-containing protein 17 (P78536 whole entry, the tested form may be a part): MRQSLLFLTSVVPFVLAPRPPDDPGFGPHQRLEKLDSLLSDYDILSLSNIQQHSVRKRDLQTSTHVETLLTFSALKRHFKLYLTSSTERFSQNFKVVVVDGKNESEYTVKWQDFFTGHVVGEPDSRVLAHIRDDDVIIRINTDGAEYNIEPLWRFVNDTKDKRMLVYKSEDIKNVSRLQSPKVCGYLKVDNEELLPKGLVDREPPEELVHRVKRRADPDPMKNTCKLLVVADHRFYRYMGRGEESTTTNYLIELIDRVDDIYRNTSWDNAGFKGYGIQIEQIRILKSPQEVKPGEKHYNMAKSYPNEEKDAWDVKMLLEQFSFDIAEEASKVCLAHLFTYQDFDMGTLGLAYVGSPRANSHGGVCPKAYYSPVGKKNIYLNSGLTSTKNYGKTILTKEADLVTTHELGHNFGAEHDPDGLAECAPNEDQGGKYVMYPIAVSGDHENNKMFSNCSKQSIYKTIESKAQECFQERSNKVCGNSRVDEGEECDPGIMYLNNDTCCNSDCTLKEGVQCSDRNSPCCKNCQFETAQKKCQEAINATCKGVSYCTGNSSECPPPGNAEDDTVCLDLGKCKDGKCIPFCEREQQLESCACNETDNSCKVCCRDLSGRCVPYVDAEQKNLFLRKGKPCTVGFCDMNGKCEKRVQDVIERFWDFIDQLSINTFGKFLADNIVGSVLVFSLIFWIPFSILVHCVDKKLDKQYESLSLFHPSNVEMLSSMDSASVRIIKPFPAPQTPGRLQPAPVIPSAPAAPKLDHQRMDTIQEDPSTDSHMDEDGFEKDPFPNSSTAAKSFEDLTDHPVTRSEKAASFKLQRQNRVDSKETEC
Chain of Nucleotide-binding oligomerization domain-containing protein 2 (Q9HC29 whole entry, the tested form may be a part): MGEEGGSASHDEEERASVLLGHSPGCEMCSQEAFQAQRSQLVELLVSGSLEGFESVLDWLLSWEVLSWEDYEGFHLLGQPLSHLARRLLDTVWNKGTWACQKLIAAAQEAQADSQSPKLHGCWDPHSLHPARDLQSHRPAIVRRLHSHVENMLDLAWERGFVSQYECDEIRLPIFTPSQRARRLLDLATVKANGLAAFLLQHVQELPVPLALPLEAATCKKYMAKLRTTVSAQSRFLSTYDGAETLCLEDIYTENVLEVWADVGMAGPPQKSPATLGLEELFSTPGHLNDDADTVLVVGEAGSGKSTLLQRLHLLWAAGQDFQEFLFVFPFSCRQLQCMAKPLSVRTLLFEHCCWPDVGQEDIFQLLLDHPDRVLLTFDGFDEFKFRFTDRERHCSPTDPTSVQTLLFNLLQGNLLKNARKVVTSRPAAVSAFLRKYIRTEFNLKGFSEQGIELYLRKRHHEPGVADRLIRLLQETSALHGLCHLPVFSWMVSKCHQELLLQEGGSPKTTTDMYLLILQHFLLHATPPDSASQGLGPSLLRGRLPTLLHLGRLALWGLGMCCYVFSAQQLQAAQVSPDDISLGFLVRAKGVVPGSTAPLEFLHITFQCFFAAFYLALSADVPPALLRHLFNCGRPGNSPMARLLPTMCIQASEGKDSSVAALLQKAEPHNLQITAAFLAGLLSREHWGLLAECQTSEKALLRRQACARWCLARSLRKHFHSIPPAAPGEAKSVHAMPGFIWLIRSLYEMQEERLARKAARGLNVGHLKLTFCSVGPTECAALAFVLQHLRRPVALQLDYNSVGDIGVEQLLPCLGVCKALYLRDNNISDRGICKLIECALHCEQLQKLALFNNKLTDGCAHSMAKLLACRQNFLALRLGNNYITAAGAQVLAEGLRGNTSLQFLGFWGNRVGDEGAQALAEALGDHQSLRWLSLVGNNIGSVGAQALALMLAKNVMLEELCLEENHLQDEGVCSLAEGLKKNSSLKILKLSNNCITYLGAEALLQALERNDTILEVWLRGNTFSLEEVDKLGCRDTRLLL

Structure (SMILES): O=C(Nc1ccc(S(=O)(=O)N2CCOCC2)cc1)c1ccc(CN2CCc3ccccc3C2)cc1
- IC50 [1]: 5.46 µM (active)
- IC50 [2]: 0.347 µM (active)
- IC50 [3]: 0.627 µM (active)
- AC50 [4]: inconclusive
- IC50 [5]: > 80 µM (inactive)
- IC50 [6]: 3.77 µM (active)

Structure (SMILES): Cc1ccc(S(=O)(=O)Nc2ccc3c(c2)CC(=O)N([C@H](C)CO)C[C@@H](C)[C@H](CN(C)S(=O)(=O)c2ccccc2)O3)cc1
- AC50 [7]: > 60 µM (inactive)

Structure (SMILES): CCc1ccc(/C=C2\SC(=S)N(CCCC(=O)Nc3ccc(C(=O)O)cc3)C2=O)cc1
- EC50 [8]: > 150 µM (not active)
- IC50 [9]: 76.8 µM (active)
- IC50 [10]: 9.28 µM (active)
- EC50 [11]: 7.61 µM (active)
- IC50 [12]: 17.3 µM (inactive)
- IC50 [13]: < 0.5 µM (active)
- EC50 [14]: 3.67 µM (active)
- IC50 [15]: 0.636 µM (active)
- EC50 [16]: 0.248 µM (active)
- EC50 [17]: 7.29 µM (active)
- EC50 [18]: > 150 µM (not active)
- IC50 [19]: 0.581 µM (active)

Structure (SMILES): Nc1nc2ccccc2n1S(=O)(=O)c1ccc(Cl)c(Cl)c1
- IC50 [20]: > 20 µM (inactive)
- IC50 [21]: 0.529 µM (active)
- IC50 [22]: > 20 µM (inactive)
- IC50 [23]: > 20 µM (inactive)

Structure (SMILES): CC[C@@]1([N+](=O)[O-])C[C@H]2C=C[C@@H]1C2.CC[C@@]1([N+](=O)[O-])C[C@H]2C=C[C@@H]1C2
- AC50 [24]: inconclusive
- AC50 [25]: inconclusive

Structure (SMILES): NC(=O)[C@@H]1CC2(CC(c3cccc(NC(=O)CC(c4ccccc4)c4ccccc4)c3)=NO2)CN1C(=O)c1ccc(Cl)cc1 (stereo partly drawn)
- EC50 [26]: 0.619 µM (active)
- IC50 [27]: > 7.72 µM (active)
- IC50 [28]: > 69.5 µM (inactive)
- EC50 [29]: > 60 µM (not active)
- AC50 [30]: 41.7 µM (active)
- AC50 [31]: 5.27 µM (active)

Structure (SMILES): COc1cc(F)cc(-c2ccc3c(c2)c(-c2cccs2)c(-c2cc(OC)cc(OC)c2)n3C)c1
- AC50 [32]: 26.5 µM (active)
- AC50 [33]: 16.5 µM (active)
